From ChEMBL document CHEMBL1153838, “Optimization of the dosage of flucytosine in combination with amphotericin B for disseminated candidiasis: a pharmacodynamic rationale for reduced dosing” (2007)
In brackets after ≈: the same amount, converted by molar mass.

Assays:
Format in all cases: functional
Candida [1] = test: Antifungal activity against Candida species infected patients assessed as residual fungal burden at 0.1 mg/kg/day administered as single dose
Candida [2] = test: Antifungal activity against Candida species infected patients assessed as residual fungal burden at 0.6 mg/kg/day administered as single dose
[3] = T>MIC in Candida species infected patients at 25 mg/kg/day administered as four divided doses
Candida [4] = test: Antifungal activity against Candida species infected patients assessed as residual fungal burden at 0.3 mg/kg/day administered as single dose
Candida [5] = test: Antifungal activity against Candida isolates
Candida [6] = test: Antifungal activity against Candida isolates by CLSI methods
Candida albicans = test: Antifungal activity against Candida albicans isolates by broth microdilution method

| T>MIC [3] [%] | MIC (Candida [5]) [µg/mL] | MIC90 (Candida [6]) [µg/mL] | MIC (Candida albicans) [µg/mL] | SMILES | log10CFU/g (Candida [1]) | log10CFU/g (Candida [2]) | log10CFU/g (Candida [4]) |
| --- | --- | --- | --- | --- | --- | --- | --- |
| 100 | ≤ 1 | – | – | C[C@@H]1[C@H](O)[C@@H](C)/C=C/C=C/C=C/C=C/C=C/C=C/C=C/[C@H](O[C@@H]2O[C@H](C)[C@@H](O)[C@H](N)[C@@H]2O)C[C@@H]2O[C@](O)(C[C@@H](O)C[C@@H](O)[C@H](O)CC[C@@H](O)C[C@@H](O)CC(=O)O[C@H]1C)C[C@H](O)[C@H]2C(=O)O [AMPHOTERICIN B] | 2.2 | 0.6 | 1 |
| – | – | 1 (≈ 7.75 µM) | 0.125 (≈ 0.968 µM) | Nc1nc(=O)[nH]cc1F [FLUCYTOSINE] | – | – | – |
